Experimental findings from ChEMBL document CHEMBL1138072, “Critical modifications of the ISO-1 scaffold improve its potent inhibition of macrophage migration inhibitory factor (MIF) tautomerase activity” (Bioorg Med Chem Lett, 2006) are described below.

What is called IC50 is the concentration needed to halve the response being measured. The low end stands for inhibition by little substance, the high end for a need for much substance.

For this assay, the target named is T1, Macrophage migration inhibitory factor (Homo sapiens, UniProt P14174).
T1 sequence (P14174 whole entry): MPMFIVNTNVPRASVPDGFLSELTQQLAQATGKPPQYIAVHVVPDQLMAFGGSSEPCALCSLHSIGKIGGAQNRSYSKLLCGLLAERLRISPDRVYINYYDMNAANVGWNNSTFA
The experiment in a line: Inhibition of MIF tautomerase activity.

`CCOC(=O)CC1CC(c2ccc(O)cc2)=NO1` (stereo unspecified) yielded an IC50 of 12 µM.

The compound `CCCOC(=O)CC1CC(c2ccc(O)cc2)=NO1` (stereo unspecified) had an IC50 of 4 µM.

In turn, `CC(C)OC(=O)CC1CC(c2ccc(O)cc2)=NO1` (stereo unspecified) displayed an IC50 of 6 µM.

On to `O=C(CC1CC(c2ccc(O)cc2)=NO1)OC1CCCCC1` (stereo unspecified), for which the midpoint of inhibition, the IC50, lay at 2.5 µM.

`COc1ccc(NC(=O)CC2CC(c3ccc(O)cc3)=NO2)cc1` (stereo unspecified) had a 50% inhibitory concentration (IC50) of 26 µM.

In turn, `O=C(CC1CC(c2ccc(O)cc2)=NO1)NC1CCCCC1` (stereo unspecified) yielded an IC50 of 24 µM.

On to `CC(C)(C)OC(=O)NCCCCNC(=O)CC1CC(c2ccc(O)cc2)=NO1` (stereo unspecified), for which the IC50 amounted to 8.5 µM.

Take `CC(C)(C)COC(=O)CC1CC(c2ccc(O)cc2)=NO1` (stereo unspecified): it took 1.5 µM to reach half-maximal inhibition (IC50).

As to `CCCCOC(=O)CC1CC(c2ccc(O)cc2)=NO1` (stereo unspecified), inhibition was half-maximal at 3 µM (IC50).

Compound `COc1ccc(OC(=O)CC2CC(c3ccc(O)cc3)=NO2)cc1` (stereo unspecified) returned an IC50 of 8.5 µM.

Compound `CC(C)(C)c1ccc(OC(=O)CC2CC(c3ccc(O)cc3)=NO2)cc1` (stereo unspecified) returned an IC50 of 10 µM.

In turn, `COC(=O)CC1CC(c2ccc(O)c(F)c2)=NO1` (stereo unspecified) returned an IC50 of 6.5 µM.

For the compound `O=C(CC1CC(c2ccc(O)cc2)=NO1)Oc1ccccc1` (stereo unspecified), the midpoint of inhibition, the IC50, lay at 10 µM.

As to `O=C(CC1CC(c2ccc(O)cc2)=NO1)OCC1CCCCC1` (stereo unspecified), half-maximal inhibition (IC50) was put at 5 µM.

As to `NCCCCNC(=O)CC1CC(c2ccc(O)cc2)=NO1` (stereo unspecified), the IC50 is over 100 µM.

As to `Cc1cc(C)c(OC(=O)CC2CC(c3ccc(O)cc3)=NO2)c(C)c1` (stereo unspecified), the IC50 came out at 20 µM.
